The source of these data is publication PMC3003761 (ACS chemical biology, 2010).

Each structure is given as a SMILES string. Like-named read-outs stand apart in the source and are kept apart here.

One series has as its target Shaker-IR KV channel (Drosophila melanogaster, UniProt P08510, DEL6-46). Briefly: cell-based.
Another series can be described thus: in vivo. The conditions noted are these: male, CD-1, mouse, ip, 3 mg/kg.
Series [1] relates to rat phrenic nerve-hemidiaphragm preparations. The following applies: cited from earlier work.
A further series relates to BoNT/A. It counts as in vivo, mouse. The following applies: n = 10.
For series [2] the following is noted: mouse, in vivo, ip, 3 mg/kg.
The conditions of series [3]: mouse, in vivo.
Series [4] has as its system serotype A botulinum neurotoxin-induced paralysis of mouse phrenic nerve-hemidiaphragm preparations.

Turning to `Nc1ccncc1N` [Compound 3, 3,4 diaminopyridine, reference compound], on Shaker-IR KV channel, the Hill coefficient came out at 1.04 ± 0.18 and the IC50 was 26.7 ± 4 µM. In the series “in vivo”, the time to peak (Tmax) amounted to 30 min and the half-life is 20.4 min.
For `C[n+]1ccc(N)c(N)c1` [Compound 4, 3,4-diamino-1-methylpyridinium], the “activity in rat phrenic nerve-hemidiaphragm preparations” value in series [1] is “inactive”.
Consider `Nc1cncc(N)c1N` [Compound 5, 3,4,5-Triaminopyridine], for which, at Shaker-IR KV channel, the Hill coefficient is 1.09 ± 0.13 and the IC50 is 697 µM. Besides, the “Rescue of BoNT/A intoxicated mice” value with BoNT/A was “as effective as 3,4-DAP”. In addition, in series [2], the brain exposure result is recorded as “no detectable brain exposure”. For the same compound, the “toxicity (distress) after compound alone” value in series [3] is on record as “no distress was observed”. Further, in “in vivo”, the time of peak concentration (Tmax) worked out at 30 min and the half-life was 18.6 min.
Take `c1cc2nc[nH]c2cn1` [Compound 7, 5-azabenzimidazole]: the “Ability to reverse BoNT/A-induced muscle paralysis” value in series [4] is listed as “unable to reverse BoNT/A-induced muscle paralysis”.
`C#CC[n+]1ccc(N)c(N)c1` [Compound 11, 3,4-diamino-1-(prop-2-ynyl)pyridinium] returned a Hill coefficient at Shaker-IR KV channel of 1.28 ± 0.34. In addition, the IC50 at Shaker-IR KV channel (read-out: K0.5 (compound concentration required to achieve 50% inhibition)) was determined as 22.2 ± 4.3 µM. For the same compound, in the series on BoNT/A, the “Rescue of BoNT/A intoxicated mice” value is given as “low efficacy”. In series [2], the “AUC(0-infinity) (plasma)” value was found to be 0.62 µg·h/mL, the “Cmax (plasma)” value turned out to be 0.402 µg/mL, the “Tmax (plasma)” value came to 30 min and the “brain exposure as percentage of the plasma exposure” value is on record as 13%. This compound displayed a plasma half-life in series [2] of 72 min. In addition, the “toxicity (distress) after compound alone” value in series [3] was “no distress was observed”.
Turning to `CC[N+](CC)(CC)CCCc1ccccc1` [Compound 12, triethyl-3-phenylpropylammonium], the “Ability to reverse BoNT/A-induced muscle paralysis” value in series [4] was “apparent neurotoxicity of the compound 12 prevented determination”.

As a reminder, the Hill coefficient is a measure of the steepness of the concentration-response curve. As usually defined, the Tmax is the time at which the peak concentration occurs. A word on the half-life: it is how long it takes for the measured level to halve. Higher therefore signals slow loss.
